Source: patent US5885985A, “Guanidine derivatives useful in therapy” (priority 1993, dated 1999)
Counter-ions that a name gives are not always drawn.

Tests used:
[1] = target: T1, neuronal isoform of nitric oxide synthetase (Rattus norvegicus, UniProt P29476); assay: biochemical; details: enzyme from rat hippocampus or cerebellum; 22° C., 10 minutes; read-out: IC50 in the screen for activity against the neuronal isoform of nitric oxide synthetase
T1 construct: Enzyme was isolated from rat hippocampus or cerebellum; from tissue; host or cells: hippocampus or cerebellum of male Sprague-Dawley rat (20,000 g supernatant)
T1 sequence (P29476 whole entry, canonical isoform): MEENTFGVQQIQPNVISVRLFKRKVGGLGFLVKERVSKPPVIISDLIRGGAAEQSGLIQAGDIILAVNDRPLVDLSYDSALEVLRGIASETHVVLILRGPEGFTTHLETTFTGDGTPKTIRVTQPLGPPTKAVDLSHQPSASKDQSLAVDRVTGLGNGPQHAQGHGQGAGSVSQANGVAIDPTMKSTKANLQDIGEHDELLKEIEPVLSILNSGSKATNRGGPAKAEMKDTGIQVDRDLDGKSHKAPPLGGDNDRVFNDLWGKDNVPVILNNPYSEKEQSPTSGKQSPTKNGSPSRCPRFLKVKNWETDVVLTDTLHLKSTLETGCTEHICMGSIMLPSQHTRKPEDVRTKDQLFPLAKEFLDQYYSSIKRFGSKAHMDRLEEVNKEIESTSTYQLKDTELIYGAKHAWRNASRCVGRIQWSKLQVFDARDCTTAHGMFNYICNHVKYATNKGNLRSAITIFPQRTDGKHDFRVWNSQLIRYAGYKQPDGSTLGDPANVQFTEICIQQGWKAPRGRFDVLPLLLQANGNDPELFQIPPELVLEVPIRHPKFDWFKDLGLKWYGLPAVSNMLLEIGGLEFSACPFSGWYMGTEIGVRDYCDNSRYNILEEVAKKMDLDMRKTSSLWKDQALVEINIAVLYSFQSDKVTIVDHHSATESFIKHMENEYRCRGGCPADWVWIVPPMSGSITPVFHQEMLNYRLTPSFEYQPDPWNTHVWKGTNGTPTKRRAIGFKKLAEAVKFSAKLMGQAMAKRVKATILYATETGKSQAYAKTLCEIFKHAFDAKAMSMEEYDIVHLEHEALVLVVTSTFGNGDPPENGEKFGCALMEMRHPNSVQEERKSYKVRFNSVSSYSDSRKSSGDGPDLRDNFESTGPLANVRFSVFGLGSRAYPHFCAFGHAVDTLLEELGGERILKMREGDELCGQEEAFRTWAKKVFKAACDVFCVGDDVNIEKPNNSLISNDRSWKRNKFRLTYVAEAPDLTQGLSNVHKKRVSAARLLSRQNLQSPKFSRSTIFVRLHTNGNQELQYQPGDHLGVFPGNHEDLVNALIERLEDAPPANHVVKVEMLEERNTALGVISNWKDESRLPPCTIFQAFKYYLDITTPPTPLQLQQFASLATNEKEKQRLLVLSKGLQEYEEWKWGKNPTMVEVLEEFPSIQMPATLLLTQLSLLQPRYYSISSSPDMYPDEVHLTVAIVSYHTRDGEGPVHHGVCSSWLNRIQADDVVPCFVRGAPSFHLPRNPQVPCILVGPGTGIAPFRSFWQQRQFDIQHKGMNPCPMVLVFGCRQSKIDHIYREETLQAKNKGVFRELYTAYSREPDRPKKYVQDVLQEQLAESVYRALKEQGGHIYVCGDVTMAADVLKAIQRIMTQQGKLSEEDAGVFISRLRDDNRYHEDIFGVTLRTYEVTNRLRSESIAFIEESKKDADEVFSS

[2] = target: T2, endothelial isoform of nitric oxide synthetase (Homo sapiens, UniProt P29474); assay: Screen for Endothelial Nitric Oxide Synthase Inhibition Activity; type: biochemical
T2 construct: Enzyme may be isolated from human umbilical vein endothelial cells (HUVECs); host or cells: human umbilical vein endothelial cells (HUVECs), CHAPS-solubilised particulate fraction
T2 sequence (P29474 2-1203): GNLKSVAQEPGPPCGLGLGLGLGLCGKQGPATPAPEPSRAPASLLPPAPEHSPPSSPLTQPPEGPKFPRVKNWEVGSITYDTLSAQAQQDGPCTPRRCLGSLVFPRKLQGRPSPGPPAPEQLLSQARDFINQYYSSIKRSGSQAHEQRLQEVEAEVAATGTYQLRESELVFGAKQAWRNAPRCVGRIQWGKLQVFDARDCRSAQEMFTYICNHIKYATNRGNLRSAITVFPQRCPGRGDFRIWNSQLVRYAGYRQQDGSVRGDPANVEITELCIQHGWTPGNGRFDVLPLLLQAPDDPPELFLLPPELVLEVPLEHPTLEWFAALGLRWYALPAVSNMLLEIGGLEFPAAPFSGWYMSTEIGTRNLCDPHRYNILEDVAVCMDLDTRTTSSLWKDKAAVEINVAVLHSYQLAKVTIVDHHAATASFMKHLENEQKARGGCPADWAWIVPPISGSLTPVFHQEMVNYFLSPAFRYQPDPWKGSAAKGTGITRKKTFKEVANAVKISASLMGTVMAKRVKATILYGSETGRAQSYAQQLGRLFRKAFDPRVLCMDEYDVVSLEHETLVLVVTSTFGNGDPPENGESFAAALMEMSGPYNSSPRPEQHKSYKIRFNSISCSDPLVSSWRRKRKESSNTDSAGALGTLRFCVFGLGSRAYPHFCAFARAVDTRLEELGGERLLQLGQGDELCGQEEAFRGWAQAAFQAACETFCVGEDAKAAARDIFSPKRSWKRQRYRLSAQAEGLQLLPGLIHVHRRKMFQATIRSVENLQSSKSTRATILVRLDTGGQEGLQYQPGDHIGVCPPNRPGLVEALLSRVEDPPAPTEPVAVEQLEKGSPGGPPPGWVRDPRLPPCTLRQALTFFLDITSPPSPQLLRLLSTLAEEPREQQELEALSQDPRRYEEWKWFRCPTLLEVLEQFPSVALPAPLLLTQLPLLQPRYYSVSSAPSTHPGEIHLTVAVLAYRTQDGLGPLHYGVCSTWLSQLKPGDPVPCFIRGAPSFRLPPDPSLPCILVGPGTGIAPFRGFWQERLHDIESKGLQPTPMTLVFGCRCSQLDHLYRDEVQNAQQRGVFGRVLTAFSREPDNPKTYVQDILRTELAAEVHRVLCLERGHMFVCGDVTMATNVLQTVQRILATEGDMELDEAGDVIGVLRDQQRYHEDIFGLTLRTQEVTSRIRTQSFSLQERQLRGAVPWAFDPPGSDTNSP

[3] = target: T3, macrophage isoform of nitric oxide synthetase (Mus musculus, UniProt P29477); assay: Screen for Macrophage Nitric Oxide Synthase Inhibition Activity; type: biochemical; details: lysate of induced murine J774A-1 cells; 1 hour at room temperature; read-out: IC50 in the screen for activity against the macrophage isoform of nitric oxide synthetase
T3 construct: endogenous in cells; host or cells: murine macrophage cell line J774A-1 (from laboratories of the Imperial Cancer Research Fund), induced with LPS and IFN-gamma
Text: The enzyme nitric oxide synthetase has a number of isoforms and compounds of formula I, or a pharmaceutically acceptable salt thereof, may be screened for nitric oxide synthetase inhibition activity by procedures based on those of Bredt and Snyder in Proc. Natl. Acad. Sci. (1990) 87, 682-685 and Forstermann et. al. (1992) Eur. J. Pharm. 225, 161-165. Nitric oxide synthetase converts ^3 H-L-arginine to ^3 H-L-citrulline which can be separated by cation exchange chromatography and quantified by liquid scintillation counting.
(2) Screen for Macrophage Nitric Oxide Synthase Inhibition Activity
Enzyme is prepared, after induction, from the cultured murine macrophage cell line J774A-1 (obtained from laboratories of the Imperial Cancer Research Fund). J774A-1 cells are cultured in Dulbecco's Modified Eagles Medium (DMEM) supplemented with 10% foetal bovine serum, 4 mM L-glutamine and antibiotics (100 units/ml penicillin G, 100 μg/ml streptomycin & 0.25 μg/ml amphotericin B). Cells are routinely grown in […] flasks containing 35 ml medium kept at 37° C. and in a humidified atmosphere containing 5% CO2.
Nitric oxide synthase is produced by cells in response to inferferon-γ(IFNγ) and lipopolysaccharide (LPS). […]
Labelled L-citrulline is separated from labelled L-arginine using Dowex AG-50W. […] After allowing the samples to dry the L-citrulline is quantified by scintillation counting. […]

IC50 [1] | IC50 ([2]; enzyme from HUVECs, 22° C., 10 minutes, read-out: IC50 in the screen for activity against the endothelial isoform of nitric oxide synthetase) | IC50 [3] | inhibition at 1 µM ([2]; at a concentration of 1 μM, reference standard) | Structure (SMILES)
< 10 µM | > 100 µM | > 100 µM | – | CC(=O)Nc1cccc(NC(=N)N2CCCC2)c1 [Example 1, N-(3-((methylcarbonyl)amino)phenyl)-1-pyrrolidinecarboximidamide monohydrochloride]
– | – | – | 70 to 90% | N=C(NCCC[C@H](N)C(=O)O)N[N+](=O)[O-] [N-nitro-L-arginine, reference compound]
